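Each compound was tested at five concentrations against cells in 96-well plates for 48 hours. TGI marks complete inhibition of growth.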
What was measured:
Test in all cases: NCI anticancer screen, dose series, 48 h
RXF-631 renal = test system: RXF-631 renal
DMS 114 small cell lung = test system: DMS 114 small cell lung
DLD-1 colon = test system: DLD-1 colon
M19-MEL melanoma = test system: M19-MEL melanoma
HOP-18 NSCLC = test system: HOP-18 NSCLC
LXFL 529 NSCLC = test system: LXFL 529 NSCLC
DMS 273 small cell lung = test system: DMS 273 small cell lung

SMILES | TGI (RXF-631 renal) | TGI (DMS 114 small cell lung) | TGI (DLD-1 colon) | TGI (M19-MEL melanoma) | TGI (HOP-18 NSCLC) | TGI (LXFL 529 NSCLC) | TGI (DMS 273 small cell lung)
C[N+](C)(C)CC(=O)N/N=C/c1oc(-c2cccc([N+](=O)[O-])c2)c(-c2cccc([N+](=O)[O-])c2)c1[N+](=O)[O-] | > 100 µM | > 100 µM | > 100 µM | > 100 µM |  |  | 
Cc1no[n+]([O-])c1/C=N/NS(=O)(=O)c1ccccc1 |  | > 100 µM | > 100 µM | > 100 µM | > 100 µM | > 100 µM | 
CC1(Br)S(=O)(=O)OCCOS1(=O)=O |  | > 100 µM | > 100 µM | > 100 µM |  | > 100 µM | > 100 µM
COC(=O)NN/C=C(\C=Nc1ccccc1)[N+](=O)[O-] | > 100 µM | > 100 µM | > 100 µM | > 100 µM | > 100 µM | > 100 µM | > 100 µM
CC(=O)n1cc(CC(C)O)c(=O)[nH]c1=O (stereo unspecified) | > 100 µM | > 100 µM | > 100 µM | > 100 µM | > 100 µM | > 100 µM | > 100 µM
CC(C)(C)c1cc(Oc2ccc(C#N)c(C#N)c2)cc(C(C)(C)C)c1 | > 100 µM | > 100 µM | > 100 µM | > 100 µM | > 100 µM | > 100 µM | 27.1 µM
CCOC(=O)c1ncn2c1[nH]c(=O)c1ccccc12 |  | > 100 µM |  | > 100 µM |  | > 100 µM | > 100 µM
OC1=CN=C(C2CC2)Oc2ccccc21 |  | > 100 µM | > 100 µM | > 100 µM |  | > 100 µM | > 100 µM
C=CC(Br)(CBr)CCC(Br)C(C)(C)Br (stereo unspecified) |  | 24.6 µM | 33.4 µM | 27.4 µM | 28.9 µM | 27.7 µM | 22.5 µM
O=C(Cc1nc2ccc(C(=O)c3ccccc3)cc2[nH]c1=O)C(=O)Nc1ccc(C(F)(F)F)cc1[N+](=O)[O-] | > 100 µM |  | > 100 µM | > 100 µM | > 100 µM | > 100 µM | > 100 µM
Cc1ccc(S(=O)(=O)C(C#N)c2nc3ccccc3nc2N2CCOCC2)cc1 (stereo unspecified) |  | 49.5 µM | 93.1 µM | 81.6 µM |  | > 100 µM | 49.4 µM

Source: PubChem BioAssay (NCI)
